Results taken from patent US20100168406A1, “USE OF GINSENOSIDE Rb2 MONOMER IN THE MANUFACTURE OF MEDICAMENTS FOR THROMBOLYSIS” (priority 2006, published 2010).

Columns and labels:
[1] = test system: thrombi; test: In vitro thrombolytic effect on capillary thrombi (24 h, 37° C.); type: biochemical, Wistar rats
Description: Nine female Wistar rats were used. Blood samples were taken from postorbital venous plexus using hard neutral glass capillary, 4 capillaries for each rat and 36 capillaries in total. The capillaries which contained the blood samples were left over night and the thrombi were then removed. The 4 thrombus samples of each rat were placed into test tubes containing 1 ml NS solution, 1000 U urokinase in 1 ml NS solution, 1 mg Rb2 (80%) in 1 ml NS solution and 1 mg Rb2 (98%) in 1 ml NS solution, respectively. All the test tubes were placed into a water bath at a temperature of 37° C. with shaking at an interval of 30 minutes. 24 hours later, the solutions were decanted, the remaining thrombi were weighed and the thrombolysis rate was calculated. Thrombolysis rate=(starting weight of thrombus−remaining weight of thrombus)/starting weight of thrombus×100%

[2] = test system: arteriovenous shunt thrombus in rats; test: Arteriovenous shunt thrombosis method, in vivo thrombolytic effect; set-up: species or system Winstar rats; conditions: femoral vein injection given twice
Description: Arteriovenous shunt thrombosis method was applied in Winstar rats to observe the inhibition of thrombosis in rats. Under intraperitoneal anesthesia with mebumal sodium, a polyethylene tube penetrated by a silk thread was placed between the right common carotid artery and the left external jugular vein, to allow blood flow through the thread for 15 min. Upon formation of a thrombus, the test agents were injected into femoral vein, and again after an interval of 15 min, both of the same dosage. 45 min post administration, the silk thread was removed rapidly and weighed. Subtraction of the weight of silk thread from the total weight yielded the weight of the thrombus (mg). The thrombus was dried in an oven at a temperature of 60° C. for 4 hours, so as to give the dry weight (mg) of the thrombus.

[3] = test system: blood clots; test: In vitro thrombolytic effect on rat blood clots (6 h, 37° C.); type: biochemical, rats
Description: Rats used in the study were anaesthetized by urethane. Blood samples were taken from abdominal aorta, placed in plastic tubes, and were removed after 24 hours of coagulation. The blood clot was semi-blotted with filter paper and cut into pieces. 90 to 120 mg blood clots were accurately weighed and put into test tubes, to which NS, an Rb2 solution of 200 μg/ml, 100 μg/ml, or 50 μg/ml, or a urokinase solution of 50 U/ml, in a volume of 1 ml was added, respectively, and were then placed into a thermostatic horizontal shaking bath at a temperature of 37° C. and with a shaking frequency of 90 times/min for 6 hours. The undissolved blood clots were removed and weighed after semi-blotting with filter paper. The relative thrombolysis rate was calculated. SPSS 10.0 statistical software was used to perform t test among groups.

[4] = test system: KunMing mice; test: Auricle microcirculation in mice with Isoprel-induced acute myocardial necrosis; type: in vivo; conditions: 40 mg/kg intraperitoneal Day 1-7, Isoprel 7.5 mg/kg sc Day 5 and 6, 30 min after last dose
Description: (§1) 20 KunMing mice, 10 male and 10 female, were randomly divided into the control group and the administration group. The control group received intraperitoneal injection of physiological saline from Day 1 to Day 7 and subcutaneous injection of Isoprel at a dosage of 0.3 ml (7.5 mg/kg) on Day 5 and Day 6. The ginsenoside monomer Rb2 administration group received intraperitoneal injection of ginsenoside monomer Rb2 at a dosage of 40 mg/kg for 4 consecutive days; subcutaneous injection of Isoprel at a dosage of 0.3 ml (7.5 mg/kg) followed by intraperitoneal injection of ginsenoside monomer Rb2 at a dosage of 40 mg/kg on Day 5; intraperitoneal injection of ginsenoside monomer Rb2 at a dosage of 40 mg/kg followed by subcutaneous injection of Isoprel on Day 6. On Day 7, 30 min after intraperitoneal injection of ginsenoside monomer Rb2, the auricle microcirculation was determined. The data obtained from the study were subjected to t-test between groups.

[5] = test system: KunMing mice; test: Degree of cardiomyopathy (HE staining of heart) in Isoprel-induced acute myocardial necrosis; type: in vivo; conditions: 40 mg/kg intraperitoneal, Isoprel-treated mice, of 10 animals
Description: as §1
After the determination of auricle microcirculation, animals were sacrificed and heart samples were removed for HE staining for microscopic examination. The samples were classified according to the grading standards for cardiomyopathy.

[6] = test system: mice; test: Effect of Rb2 (~60%) on auricle microcirculation in mice; type: in vivo; conditions: 120 mg/10 ml/kg intragastric for 3 days, 30 minutes after last administration
Description: 20 mice, 10 male and 10 female, were randomly divided into the control group and the administration group. Animals in the administration group received intragastric administration of Rb2 at 120 mg/10 ml/kg for 3 days. Animals in the control group were given water of the same volume. The calibers, flow rate and flow pattern of V3 grade arteriole and venule were determined 30 minutes after the last administration. The data obtained from the study was subjected to t-test between groups.

[7] = test system: Wistar rats; test: Reperfusion injury after bilateral common carotid artery clamping, morphological examination of cerebral tissue; type: in vivo; conditions: Rb2 purity 90%, 10 mg/kg iv after reperfusion, brains examined 1 hour after administration
Description: Male Wistar rats weighing 300±20 g were supplied by the Animal Office of Tianjin Institute of Pharmaceutical Research.
Rb2 was prepared with NS in a ratio of […] for intravenous injection in rats before use.
30 rats were randomly divided into 3 groups with 10 rats in each group. The sham operation group received (iv) physiological saline, the model group received (iv) physiological saline and the Rb2 (with a purity of 90%) group received (iv) 10 mg/kg. All groups were administered through intravenous injection after reperfusion injury.
The rats were weighed at the time of experiment. They were anaesthetized by urethane (lg/kg) through intraperitoneal injection, laid on their back on the operation table, and cut in the middle of the neck. The common carotid arteries on both sides were dissected and clamped using small-sized artery clamps. 2 hours later, the clamps were loosened to restore blood supply, and the animals were given intravenous administration immediately. The rats were decapitated 1 hour after the administration, the brains were removed and placed into a 10% formaldehyde solution for fixation, followed by morphological examination of the cerebral tissue.

**Q.** For `CC(C)=CCC[C@](C)(O[C@@H]1O[C@H](CO[C@@H]2OC[C@H](O)[C@H](O)[C@H]2O)[C@@H](O)[C@H](O)[C@H]1O)[C@H]1CC[C@]2(C)[C@@H]1[C@H](O)C[C@@H]1[C@@]3(C)CC[C@H](O[C@@H]4O[C@H](CO)[C@@H](O)[C@H](O)[C@H]4O[C@@H]4O[C@H](CO)[C@@H](O)[C@H](O)[C@H]4O)C(C)(C)[C@@H]3CC[C@]12C` [Rb2 (98%), ginsenoside Rb2], which “Final weight of thrombus” value ([1]; 1 mg/ml in NS) is on record?
**A.** 5.5 ± 3.2 mg

**Q.** What about the Thrombolysis rate % ([1]; 1 mg/ml in NS) of the same molecule?
**A.** 71.5%

**Q.** How did the “Dry weight of thrombus” value ([2]; Rb2 purity 93.9%, 2.5 mg/kg) turn out when `CC(C)=CCC[C@](C)(O[C@@H]1O[C@H](CO[C@@H]2OC[C@H](O)[C@H](O)[C@H]2O)[C@@H](O)[C@H](O)[C@H]1O)[C@H]1CC[C@]2(C)[C@@H]1[C@H](O)C[C@@H]1[C@@]3(C)CC[C@H](O[C@@H]4O[C@H](CO)[C@@H](O)[C@H](O)[C@H]4O[C@@H]4O[C@H](CO)[C@@H](O)[C@H](O)[C@H]4O)C(C)(C)[C@@H]3CC[C@]12C` [Rb2, ginsenoside Rb2] was run?
**A.** 8.50 ± 1.91 mg

**Q.** What about the “Inhibition % (dry weight of thrombus)” value ([2]; Rb2 purity 93.9%, 2.5 mg/kg) of the same molecule?
**A.** 15.59%

**Q.** What about the “Inhibition % (wet weight of thrombus)” value ([2]; Rb2 purity 93.9%, 2.5 mg/kg) of the same molecule?
**A.** 8.71%

**Q.** And the “Wet weight of thrombus” value ([2]; Rb2 purity 93.9%, 2.5 mg/kg)?
**A.** 31.75 ± 8.54 mg

**Q.** And the “Dry weight of thrombus” value ([2]; Rb2 purity 93.9%, 5 mg/kg)?
**A.** 6.60 ± 1.35 mg

**Q.** And the “Inhibition % (dry weight of thrombus)” value ([2]; Rb2 purity 93.9%, 5 mg/kg)?
**A.** 34.46%

**Q.** And the “Inhibition % (wet weight of thrombus)” value ([2]; Rb2 purity 93.9%, 5 mg/kg)?
**A.** 34.73%

**Q.** What about the “Wet weight of thrombus” value ([2]; Rb2 purity 93.9%, 5 mg/kg) of the same molecule?
**A.** 22.70 ± 4.94 mg

**Q.** What about the “Dry weight of thrombus” value ([2]; Rb2 purity 93.9%, 10 mg/kg) of the same molecule?
**A.** 6.87 ± 1.73 mg

**Q.** What about the “Inhibition % (dry weight of thrombus)” value ([2]; Rb2 purity 93.9%, 10 mg/kg) of the same molecule?
**A.** 31.72%

**Q.** What about the “Inhibition % (wet weight of thrombus)” value ([2]; Rb2 purity 93.9%, 10 mg/kg) of the same molecule?
**A.** 23.43%

**Q.** What about the “Wet weight of thrombus” value ([2]; Rb2 purity 93.9%, 10 mg/kg) of the same molecule?
**A.** 26.63 ± 5.04 mg

**Q.** What about the Relative thrombolysis % ([3]; 50 μg/ml) of the same molecule?
**A.** 27.4 ± 8.3 %

**Q.** What about the “Weight of blood clot After lysis” value ([3]; 50 μg/ml) of the same molecule?
**A.** 78.9 ± 17.8 mg

**Q.** And the Relative thrombolysis % ([3]; 100 μg/ml)?
**A.** 28.0 ± 9.1 %

**Q.** What about the “Weight of blood clot After lysis” value ([3]; 100 μg/ml) of the same molecule?
**A.** 81.4 ± 13.4 mg

**Q.** And the Relative thrombolysis % ([3]; 200 μg/ml)?
**A.** 27.1 ± 9.1 %

**Q.** And the “Weight of blood clot After lysis” value ([3]; 200 μg/ml)?
**A.** 81.8 ± 13.4 mg

**Q.** What about the Thrombolysis rate % ([1]; 1 mg/ml in NS, listed as Ginsenoside monomer Rb2) of the same molecule?
**A.** ≥ 70%

**Q.** And the Blood flow velocity [4]?
**A.** 238 ± 22.59 um/s

**Q.** And the Caliber of artery [4]?
**A.** 39.08 ± 1.80 um

**Q.** And the Caliber of vein [4]?
**A.** 59.9 ± 3.58 um

**Q.** What about the “Degree of cardiomyopathy +++, number of animals” value [5] of the same molecule?
**A.** 1

**Q.** What about the “Degree of cardiomyopathy ++, number of animals” value [5] of the same molecule?
**A.** 2

**Q.** And the “Degree of cardiomyopathy +, number of animals” value [5]?
**A.** 3

**Q.** And the “Degree of cardiomyopathy −, number of animals” value [5]?
**A.** 4

**Q.** What about the Input branch [6] of the same molecule?
**A.** 36.42 ± 0.81[…] um/s

**Q.** What about the Output branch [6] of the same molecule?
**A.** 65.77 ± 3.14 um/s

**Q.** And the “Pathological changes of cerebral edema and cerebral ischemia vs model control group” value [7]?
**A.** alleviated remarkably

**Q.** How did the “Dry weight of thrombus” value ([2]; 5000 U (5000 U/kg)) turn out when Urokinase [reference compound] was run?
**A.** 6.62 ± 1.85 mg

**Q.** What about the “Inhibition % (dry weight of thrombus)” value ([2]; 5000 U (5000 U/kg)) of the same molecule?
**A.** 34.26%

**Q.** And the “Inhibition % (wet weight of thrombus)” value ([2]; 5000 U (5000 U/kg))?
**A.** 25.37%

**Q.** And the “Wet weight of thrombus” value ([2]; 5000 U (5000 U/kg))?
**A.** 25.37 ± 6.37 mg

**Q.** What about the Relative thrombolysis % ([3]; 50 U/ml) of the same molecule?
**A.** 32.7 ± 10.0 %

**Q.** And the “Weight of blood clot After lysis” value ([3]; 50 U/ml)?
**A.** 73.8 ± 11.3 mg

**Q.** What about the “Final weight of thrombus” value ([1]; 1000 U/ml in NS) of the same molecule?
**A.** 0 mg

**Q.** What about the Thrombolysis rate % ([1]; 1000 U/ml in NS) of the same molecule?
**A.** 100%
